≈ marks a conversion by molar mass, not a printed value. Where two headings read alike, the source gives them in different places.
Experiments:
[1] = physchem; format: physicochemical; details: for D (partition ratio), incubation 1 / D (partition ratio), incubation 2 / D (partition ratio), incubation 3: Table S2, n-octanol/PBS pH 7.4
Method: Determination of Distribution Coefficient (LogD, pH 7.4) […]
n-octanol – phosphate buffered saline (PBS), pH 7.4. Distribution coefficient (or LogD) is a […]
Phosphate buffered saline, tablet (Sigma-Aldrich, USA; Cat # P4417)
Acetic acid (Enamine, Ukraine.)
DMSO stock solutions of the test compounds 10mM
Gradient HPLC system (Shimadzu, Japan)
MTR22 Multi Mix Rotator (UNICO, USA)
Laboratory Centrifuge, Sigma 4-15C, Qiagen (SIGMA GmbH, Germany) […]
allowed to mix in a rotator for 1 h at 30 rpm. Phase separation was assured by centrifugation for […]
dilution. The samples (both phases) were analyzed using a HPLC system coupled with a tandem mass spectrometer. Mebendazole was used as a reference compound. […]
where: SO – peak area of the analyte in octanol phase
S P – peak area of the analyte in PBS buffer do – dilution coefficient for octanol phase dp – dilution coefficient for aqueous phase

[2] = Metabolic stability in human liver microsomes; format: in vitro ADME; details: both sexes; for half-life at 2 µM: read-out: t1/2; for k el at 2 µM: elimination constant, read-out: kel (converted)
Method: (§1) The data acquisition and system control was performed using Analyst 1.6.3 software from AB Sciex. Methods Microsomal incubations were carried out in 96-well plates in 5 aliquots of 30 μL each (one for each time point). […] In the control reactions the NADPH-cofactor system was substituted with phosphate buffer. […] Each reaction was performed in duplicates. Five time points over 40 minutes were analyzed. The reactions were stopped by adding 4 volumes of methanol containing internal standard to incubation aliquots, followed by protein sedimentation by centrifuging at 5500 rpm for 4 minutes. […]. Supernatants were analyzed using the HPLC system coupled with tandem mass spectrometer. […] In some cases, the last time point is excluded from the calculations to ensure acceptable logarithmic linearity of decay.

[3] = system: human liver microsomes; test: Metabolic stability in human liver microsomes; format: in vitro ADME
Method: as §1

[4] = Kinetic solubility in phosphate-buffered saline, pH 7.4; format: physicochemical; details: phosphate-buffered saline, 25 °C, pH 7.4, aqueous buffer, kinetic from dmso stock
Method: Analysis of Aqueous Solubility […]
compound (Ondansetron) were assessed for kinetic solubility in phosphate-buffered saline, pH […]
Phosphate buffered saline, pH 7.4 (Sigma-Aldrich, USA; Cat #P3813) […]
MultiScreen HTS 96 Well Filter Plates (Millipore, Ireland; Cat # MSGVS2210) […]
Matrix Multichannel Electronic Pipette 2-125 µL, 5-250 µL, 15-1250 µL (Thermo Scientific, […]
Vacuum pump (Millipore, USA; Model # XX5500000)
The measurements were performed using SpectraMax Plus reader in UV-Vis mode. Acquisition and analysis of the data were performed using SoftMax Pro v.5.4 (Molecular Devices) and Excel […]
Kinetic solubility assay was performed according to the Enamine’s aqueous solubility SOP.
Briefly, using a 20 mM stock solution of the compound in 100% DMSO dilutions were prepared to a theoretical concentration of 400 μM in duplicates in phosphate-buffered saline pH 7.4 […]
for two hours and then filtered through HTS filter plates using a vacuum manifold. The filtrates of test compounds were diluted 2-fold with acetonitrile with 2% DMSO before measuring.
In parallel, compound dilutions in acetonitrile/PBS (1:1) were prepared to theoretical […]
DMSO to generate calibration curves. Ondansetron was used as reference compound to control proper assay performance. 200 μl of each sample was transferred to 96-well plate and measured in 200-550 nm range with 5 nm step.
The concentrations of compounds in PBS filtrate are calculated using a dedicated Microsoft Excel calculation script. Proper absorbance wavelengths for calculations are selected for each compound manually based on absorbance maximums (absolute absorbance unit values for the minimum and maximum concentration points within 0 – 3 OD range). Each of the final datasets is additionally visually evaluated by the operator and goodness of fit (R2) is calculated for each calibration curve. The effective range of this assay is approximately 2-400 μM and the […]

[5] = pH 7.4, LogD, pH 7.4, incubation 1
[6] = pH 7.4, LogD, pH 7.4, incubation 2
[7] = pH 7.4, LogD, pH 7.4, incubation 3
[8] = human, liver microsomes, pH 7.4, human liver microsomes, 2 μM, 37 °C, with NADPH, 7 min
[9] = human, liver microsomes, pH 7.4, human liver microsomes, 2 μM, 37 °C, with NADPH, 15 min
[10] = human, liver microsomes, pH 7.4, human liver microsomes, 2 μM, 37 °C, with NADPH, read-out: % Remaining, Mean of 2
[11] = human, liver microsomes, pH 7.4, human liver microsomes, 0.42 mg protein per ml, Table S3, * approximate due to high stability, read-out: Clint
[12] = human, liver microsomes, pH 7.4, human liver microsomes, * approximate due to high stability
[13] = pH 7.4, human liver microsomes, no NADPH cofactor, ** instability partially or completely not determined by CYP450 activity, read-out: % Remaining without cofactor, Mean of 2
[14] = pH 7.4, human liver microsomes, * approximate due to high stability
[15] = Table S1, incubation 1, read-out: PBS solubility, pH 7.4, Incubation 1
[16] = Table S1, incubation 2, read-out: PBS solubility, pH 7.4, Incubation 2
[17] = Table S1, mean of 2 incubations, 2 h, 2% DMSO, effective range approx. 2-400 μM, read-out: PBS solubility, pH 7.4, Mean
[18] = experimental kinetic solubility in phosphate-buffered saline at pH 7.4, Fig. 3, read-out: Solubility
[19] = human, liver microsomes, pH 7.4, human liver microsomes, Fig. 3, read-out: CIint, intrinsic clearance

Compound	D (partition ratio), incubation 1 [1]	D (partition ratio), incubation 2 [1]	D (partition ratio), incubation 3 [1]	logD at 1 h ([1]; pH 7.4, LogD, pH 7.4 (mean))	logD at 1 h [1, 5]	logD at 1 h [1, 6]	logD at 1 h [1, 7]	logD at 1 h ([1]; pH 7.4, logD (7.4))	remaining at […], 2 µM [2, 8] [%]	remaining at […], 2 µM [2, 9] [%]	remaining at 25 min, 2 µM [2, 10] [%]	remaining at 40 min, 2 µM [2, 10] [%]	microsomal CLint at 2 µM [2, 11] [µL/min/mg]	half-life at 2 µM [2, 12] [h]	remaining at 40 min, 2 µM [2, 13] [%]	k el at 2 µM [2, 14] [s⁻¹]	solubility at 2 h [4, 15] [µM]	solubility at 2 h [4, 16] [µM]	solubility at 2 h [4, 17] [µM]	solubility at 2 h [4, 18] [µM]	other results
O=C(O)[C@@H]1[C@@H]2CC[C@@]1(C(=O)Nc1ccc(S(=O)(=O)Nc3nccs3)cc1)C2 (relative stereo) [Compound 32]	8.13E-02	3.23E-02	2.75E-02	< 1	< 1	< 1	< 1	< 1	97	97	99	100	–	–	89	–	151 (≈ 61.5 µg/mL)	164 (≈ 66.8 µg/mL)	158 (≈ 64.4 µg/mL)	101 (≈ 41.2 µg/mL)	metabolic stability (in words) ([3]; human liver microsomes): metabolically stable
O=C(O)C1C2CC1(C(=O)Nc1ccc(S(=O)(=O)Nc3nccs3)cc1)CO2 (stereo not shown) [Compound 33]	2.39E-01	1.93E-02	5.50E-01	-0.87	-0.62	-1.72	-0.26	< 1	111	111	109	106	~1	~19.8	92	–	100 (≈ 40.9 µg/mL)	102 (≈ 41.8 µg/mL)	101 (≈ 41.4 µg/mL)	158 (≈ 64.7 µg/mL)	microsomal CLint at 2 µM [2, 19]: 1 µL/min/mg; metabolic stability (in words) ([3]; human liver microsomes): metabolically stable
O=C(O)Cc1ccccc1Nc1c(Cl)cccc1Cl [Diclofenac, reference compound]	–	–	–	–	–	–	–	–	–	–	–	–	–	–	–	–	–	–	–	–	kel ([3]; both, human, 2 µM, pH 7.4): 0.115 min⁻¹; Clint ([3]; both, human, microsomes, 2 µM, pH 7.4): 276 µL/min/mg; % Remaining, Mean of 2 ([3]; both, human, microsomes, 25 min, 2 µM, pH 7.4): 8%

Now from value to molecule, other results behind:

D (partition ratio), incubation 1 [1]	D (partition ratio), incubation 2 [1]	D (partition ratio), incubation 3 [1]	logD at 1 h ([1]; pH 7.4, LogD, pH 7.4 (mean))	logD at 1 h [1, 5]	logD at 1 h [1, 6]	logD at 1 h [1, 7]	logD at 1 h ([1]; pH 7.4, logD (7.4))	remaining at […], 2 µM [2, 8] [%]	remaining at […], 2 µM [2, 9] [%]	remaining at 25 min, 2 µM [2, 10] [%]	remaining at 40 min, 2 µM [2, 10] [%]	microsomal CLint at 2 µM [2, 11] [µL/min/mg]	half-life at 2 µM [2, 12] [h]	remaining at 40 min, 2 µM [2, 13] [%]	k el at 2 µM [2, 14] [s⁻¹]	solubility at 2 h [4, 15] [µM]	solubility at 2 h [4, 16] [µM]	solubility at 2 h [4, 17] [µM]	solubility at 2 h [4, 18] [µM]	Compound	other results
5.98E+08	3.42E+05	6.79E+04	> 4.5	> 4.5	> 4.5	> 4.5	> 4.5	97	89	49	46	55	0.507	88	0.000383	3 (≈ 2.08 µg/mL)	3 (≈ 2.08 µg/mL)	3 (≈ 2.08 µg/mL)	3 ± 0.1 (≈ 2.08 µg/mL)	O=C(NC1CCN(CCCCC2(C(=O)NCC(F)(F)F)c3ccccc3-c3ccccc32)CC1)c1ccccc1-c1ccc(C(F)(F)F)cc1 [Lomitapide, reference compound]	CIint, intrinsic clearance ([3]; human liver microsomes): 55 µL/min/mg
2.09E-01	8.99E-02	4.17E-02	-1.04	-0.68	-1.05	-1.38	< 1	97	101	101	96	~2	~16	124	~1.67e-05	169 (≈ 68.2 µg/mL)	171 (≈ 69 µg/mL)	–	170 (≈ 68.6 µg/mL)	O=C(O)c1ccccc1C(=O)Nc1ccc(S(=O)(=O)Nc2nccs2)cc1 [Phthalylsulfathiazole, reference compound]	microsomal CLint at 2 µM [2, 19]: 2 µL/min/mg; metabolic stability (in words) ([3]; human, microsomes): metabolically stable
1.27E+03	1.32E+03	1.33E+03	3.12	3.1	3.12	3.12	–	–	–	–	–	–	–	–	–	–	–	–	–	COC(=O)Nc1nc2ccc(C(=O)c3ccccc3)cc2[nH]1 [Mebendazole, reference compound]	–
